We go through 13 compounds from EP0603160A2, “Compositions for in-situ active compound assembly” (SCRIPPS CLINIC AND RESEARCH FOUNDATION, priority 1986, dated 1988).

Where two headings read alike, the source gives them in different places.

For data set [1], the system named is S. typhimurium strain 14028R. Nature of the data set: Suspension culture CFU at pH 5 versus pH 7.4. The format is cell-based. Particulars: NFZ alone at 10 µM; 20 hours at 37°C in PBS, 1% DMSO. As to the method: This selectivity was also shown in suspension cultures when S. typhimurium strain 14028R was incubated for 20 hours at 37°C in PBS at either pH 5 or pH 7.4 containing 1% DMSO. When no drugs were added, the culture contained 8 x 10⁶ colony forming units (CFU)/ml for pH 5 and 1.5 x 10⁷ CFU/ml for pH 7.4. The self assembling drugs tested in this instance were semicarbazide (SC), […] (NFA) and their reaction product nitrofurazone (NFZ). Either the […] product, or mixtures of various concentrations of the precursors NC + NA were added after inoculation of the medium. While the maximum toxic selectivity (the ratio of CFU/ml at pH 7.4 as compared to CFU/ml at pH 5) observed for, NFZ alone, at 10 µM was about 100, a mixture of 1500 µM SC + 7 µM NFA gave a toxic selectivity ratio of over 8000.

Another data set concerns human erythrocytes. Nature of the data set: Erythrocyte lysis (light scattering, hemoglobin release, cell counts). The format is cell-based. The settings on record: for time for which erythrocytes are stable: solutions containing either DAPG or CHD alone. The protocol:
The putative product shown in Reaction Scheme 1 is evidently cytotoxic, since a suspension of human erythrocytes in a solution containing both CHD and DAPG in phosphate buffered saline is 95% lysed or aggregated within 1-14 hours under physiological conditions (the precise time depending on the concentrations) whereas erythrocytes are stable for at least 24 hours in plain PBS, and also in solutions containing either DAPG or CHD alone. In addition, when erythrocytes are incubated with mixtures of CHD and DAPG, a substantial induction period is observed during which no lysis or aggregation occurs, due to the time lag in formation of the cytotoxic material. Whether lysis or aggregation results depends on relative concentration; excess CHD results in lysis, equimolar concentrations in aggregation. The cytotoxicity may be due to the formation of the polycation, analogous to the known antitumor activity of poly-(L-lysine); Arnold, L. J. Proc. Natl Acad Sci (supra).
For erythrocytes blood was collected and stored with KEDTA at 4°C and erythrocytes prepared within 48 hours by centrifuging three times in phosphate-buffered saline (PBS, pH 7.4). Suspensions containing 3 x 10⁷ cells/ml were prepared in PBS containing 1% EtOH, but no […] cations, and incubated at 37°C with the compounds or mixtures to be tested.
On the other hand, while a mixture of 28 µM AOG and 28 µM decanal (reagent grade, Aldrich Chemical Co.) results in less than 10% lysis within the same 20 minute time frame, as the time of incubation increases, lysis increases also, as indicated by hemoglobin release measured by (1) light absorption of the supernatant at 400 nm. (2) decrease of light scattering by the cells at 700 nm, and (3) direct cell counts using a microscope. […] Suspensions of 3.5 x 10⁷ cells/ml prepared as above in PBS (1% EtOH, no divalent cations, pH 7.4) were incubated at 37°C, and cell lysis was followed by observing the decrease in absorbance at 700 nm. For 0% lysis, A₇₀₀ is 1.0; 0.2 for 100% lysis).
The curves were calculated using a nonlinear least squares fitting algorithm (Arc, H, et al, Statistical Methods (1970) Harper & Row, pp. 100-111) and based on a modified Hill equation (Cantor, C.R. et al, supra) wherein percent hemolysis is calculated as 100% divided by (1+(K/C))^α [formula] . In this equation, K is the median effect concentration, C is the concentration of DIOG (or of decanal and AOG), and α is the Hill constant.

The next data set concerns some tumors. Particulars: on a weight basis; Arnold et al, Proc Natl Acad Sci USA (1979); cited from earlier work.
For a further data set, the system named is S cerevisiae. Nature of the data set: Yeast growth in YPD medium with AOG and decanal. Particulars: 24 hours. The format is cell-based. The protocol: The effect of the combination of AOG and decanal on yeast was also determined. S cerevisiae in YPD medium at cell densities of 10⁵-10⁶ cell/ml used as starting concentrations. When no reagents were added to the medium, the cell density increased about 90 fold in 24 hours. […] When 10 µg/ml decanal plus 44 µg/ml AOG were added in combination, all yeast died after 24 hours.

The subject of the next data set is HeLa cells. The data set can be described thus: HeLa cell cytotoxicity, trypan blue exclusion. The format is cell-based, human. Particulars: for percentage of cells intact: 400 µM, each alone, two hours, Figure 5a; for HeLa cell toxicity: AOG or dodecanedial alone, Figure 5b. The protocol: These cells were grown in suspension in Joklik's median supplemented with calf serum, centrifuged and then taken up into Dulbecco's modified Eagles medium (DMEM) without serum. Cell suspensions containing 2-4 x 10⁶ cell/ml in DMEM containing 1% ethanol were incubated at 37°C, with or without decanal. AOG, or combinations thereof. Cell membrane damage was measured by hand counting of cells using trypan blue exclusion as the criterion.

The test system of the next data set is Erythrocytes. The data set can be described thus: Antidote to self assembly, erythrocyte lysis. In kind it is cell-based. As to the method:
In this example, cyclohexanone is used as an antidote to prevent the assembly of AOG plus decanal to produce the biologically active agent DIOG, which was described in a previous example. Erythrocytes, prepared as above, were exposed to 20 µM AOG plus 20 µM decanal.

In another data set the test system is S. cerevisiae YP52. The data set can be described thus: Growth inhibition of yeast by PC and HP in YPD medium, roller drum. In kind it is cell-based. Particulars: each alone, concentrations below 2 mM, 20 hours at 30°C in YPD medium. The protocol: Pyridine-2-carboxaldehyde (PC) and 2-hydrazino-pyridine (HP) are each alone nontoxic to S. cerevisiae YP52 yeast at concentrations below 2 mM when provided over 20 hours at 30°C in YPD medium in a roller drum. However, when supplied together, these compounds are capable of inhibiting the growth of S. cerevisiae YP52 at 30 °C in YPD. When placed together in the medium at concentrations of 1 mM + 1 mM and at 0.5 mM + 0.5 mM. substantial inhibition occurs. The adduct. pyridino-2-carboxaldehyde (2-pyridyl hydrazone) (PCPH) of the formula: [drawing 25] is a chelator and has a structural similarity to 2,2': 6',2'' terpyridine which is a known cytotoxin (McFadyen et al, J Med Chem (1985) 28:1113-1116). The second order rate constant for this reaction is 2 l/mol-sec at 37 °C, pH6, in phosphate-buffered saline.

A further data set deals with Monilinia sp. The data set can be described thus: Fungal growth on YPD medium. In kind it is cell-based. The settings on record: 2 mM of either reagent alone. The protocol: Similar results are obtained using Candida albicans, a human infective agent, as the target organism. […] Also, the growth of Monilinia sp, the causal agent in peach brown rot, is inhibited by the combination of the foregoing reagents, but not by either individually. No growth is observed after four days on YPD medium when 250 µM each of the pyridine-2-carboxaldehyde and 2-hydrazinopyridine are included.

A further data set concerns S. typhimurium. The data set can be described thus: Filter disk growth inhibition on agar LB plates at pH 7.4 and pH 5. In kind it is cell-based, Salmonella typhimurium. Particulars: 20 nanomoles on filter disk. From the text:
The formation of the foregoing chelate is also effective in inhibiting the growth of Salmonella typhimurium. This inhibition can be tested using agar disks or in culture suspension. The effect of the formation of chelate can be studied in this regard by conducting the experiments at pH 5 and pH 7.4; at pH 5 the formation of the chelate is encouraged while at […] the reaction rate is much slower.
The inhibition was spread between the disks rather than circling each disk as was the case for the PCPH inhibition. Thus, control of pH is a selective factor in controlling the self-assembly of the cytotoxic chelator.

In data set [2] the test system is Ox blood erythrocytes. The data set can be described thus: Erythrocyte killing with or without 1% serum, light scattering. In kind it is cell-based. The settings on record: Bos taurus, 1 h, pH 6.6, 896 µM AOG, Decanal 0µM (Table 4), read-out: % cells killed (0% serum).
The subject of data set [3] is Ox blood erythrocytes. The description is as above. Particulars: Bos taurus, Erythrocyte, 1 h, pH 6.6; for mortality at 448 µM: Decanal 0, AOG maintained at 448 µM according to the text (Table 4). The format is cell-based. The protocol: (§1) Ox blood erythrocytes were incubated for one hour in PBS at pH 6.6 in the presence or absence of 1% serum at 37°C. […] However, at 4-16 µM DIOG, the percentage of cells killed increased from 4.3 to 60.9. On the other hand, in the absence of serum, 7.2.% cells were killed even without the addition of DIOG, and a steady increase in killing occurred as the DIOG concentration increased, reaching 100% of cells killed at 8 µM.
The AOG concentration was maintained at a high level (448 µM) and the decanal concentration varied from 0-16 µM corresponding the previous DIOG concentration range. In this protocol, similar results were obtained for cells incubated in the absence of serum, but in the presence of 1% serum the curve was slightly displaced so that the cells appeared more protected as shown in Table 4.

In data set [4] the test system is Ox blood erythrocytes. The data set can be described thus: Erythrocyte killing with or without 1% serum, hemoglobin release. In kind it is cell-based. Particulars: Bos taurus, 1 h, read-out: cell killing measured by hemaglobin release, 1% Serum. As to the method: as §1
For data set [5] the following is noted: J Pharm Sci (1971) 60:1128-1131; cited from earlier work.

As to `NC(=O)N/N=C/c1ccc([N+](=O)[O-])o1` [NFZ, nitrofurazone], the “maximum toxic selectivity (the ratio of CFU/ml at pH 7.4 as compared to CFU/ml at pH 5)” value in data set [1] is “about 100”.
Consider `O=CCCCCCCCCC=O` [DDD, decanedialdehyde, CHO(CH₂)₈CHO], for which, in the data set on human erythrocytes (either alone at 100 µM), the lysis entry is recorded as “did not result in any observable lysis”.
In the case of “poly-(L-lysine) [poly-(L-lysine) of Mr 3 kd]”, the “toxicity relative to poly-(L-lysine) having Mr of 70 kd” value with some tumors is listed as “less than 1/20”.
Regarding `CCCCCCCCCC=O` [decanal], the “increase in cell density” value in the data set on S cerevisiae (20 µg/ml decanal) is on record as 11 fold. The “percentage of cells intact” value in the data set with HeLa cells is “considerably less dramatic decreases”. For the same compound, the lysis result in the data set with human erythrocytes (28 µM or 80 µM decanal alone, after more than 400 minutes, Figure 2) is “less than 5%”.
As to `O=C1CCC(=O)CC1` [CHD, cyclohexane-1,4-dione], the hemolysis at 60000 µM in the data set on human erythrocytes (Homo sapiens, Erythrocyte, pH 7.4, 60 mM CHD alone, after 24 hours) was found to be 18%. The “time for which erythrocytes are stable” value with human erythrocytes is reported as “at least 24 hours”.
Consider `O=CCCCCCCCCCCC=O` [dodecanedial], for which the HeLa cell toxicity result with HeLa cells is given as “neither is very toxic alone”.
For `O=C1CCCCC1` [cyclohexanone], the lysis entry in the data set on Erythrocytes (20 mM cyclohexanone plus 10 µM AOG alone, no decanal) is reported as “do not give lysis”; with Erythrocytes (cells first exposed to 20 µM AOG for 2 hours, then 20 µM decanal and 20 mM cyclohexanone), “Extensive lysis”; in the data set with Erythrocytes (pretreatment 2 hours with 20 mM cyclohexanone alone, then 20 µM AOG plus 20 µM decanal), “extensive lysis”; in the data set with Erythrocytes (pretreatment 2 hours with 20 mM cyclohexanone plus 20 µM AOG, then 20 µM decanal added), “only slow lysis”.
`NNc1ccccn1` [HP, 2-hydrazino-pyridine]: the “toxicity to S. cerevisiae YP52” value with S. cerevisiae YP52 was “nontoxic”. The “growth of Monilinia sp” value in the data set on Monilinia sp is listed as “substantial growth”.
Regarding `NNC(=Nc1ccccc1)NN` [DAPG, 1,2-diamino-3-phenyl guanididium iodide], in the data set on human erythrocytes (Homo sapiens, Erythrocyte, pH 7.4, 3 mM DAPG alone, after 24 hours), the hemolysis at 3000 µM was 18%. Besides, in the data set on human erythrocytes, the “time for which erythrocytes are stable” value is reported as “at least 24 hours”.
Consider `C(=NNc1ccccn1)c1ccccn1` [PCPH, pyridino-2-carboxaldehyde (2-pyridyl hydrazone)], for which the “growth inhibition of S. typhimurium” value in the data set with S. typhimurium (pH 5) and in the data set on S. typhimurium (pH 7.4) was “inhibited growth” in each case.
For `O=Cc1ccccn1` [PC, Pyridine-2-carboxaldehyde], the “toxicity to S. cerevisiae YP52” value in the data set with S. cerevisiae YP52 is “nontoxic”. For the same compound, the “growth of Monilinia sp” value in the data set on Monilinia sp is listed as “substantial growth”.
With `CCCCCCCCNC(=N)NN` [AOG, N-amino-N'-1-octyl guanidine], in the data set with S cerevisiae (88 µg/ml AOG), the “increase in cell density” value is recorded as “threefold increase”. For the same compound, the mortality at 896 µM was found to be 6.4% in the data set on Ox blood erythrocytes [2] and 1.3% in the data set on Ox blood erythrocytes [3] (896 µM AOG, Decanal 0µM (Table 4), read-out: % cells killed (1% serum)). Also, the mortality at 448 µM in the data set on Ox blood erythrocytes [3] (read-out: % cells killed (0% serum)) and in the data set with Ox blood erythrocytes [3] (read-out: % cells killed (1% serum)) was 0% each time. For the same compound, the hemolysis at 896 µM in the data set with Ox blood erythrocytes [4] (pH 6.6, 896 µM AOG, Decanal Concentration 0 (Table 5)) amounted to 0%. For the same compound, the hemolysis at 448 µM with Ox blood erythrocytes [4] (pH 6.6, Decanal Concentration 0, 448 µM AOG according to the text (Table 5), comma separates duplicates) is 0%. In addition, the “percentage of cells intact” value in the data set on HeLa cells is reported as “considerably less dramatic decreases”. In addition, the HeLa cell toxicity result in the data set on HeLa cells is listed as “neither is very toxic alone”. Besides, the hemolysis at 28 µM with human erythrocytes (Homo sapiens, Erythrocyte, 400 min, pH 7.4, 28 µM, 100 µM or 200 µM AOG alone, after more than 400 minutes, Figure 2) is < 5%. Moreover, the lysis entry with human erythrocytes (either alone at 100 µM) is “did not result in any observable lysis”.
As for `CN(Cc1cnc2nc(N)nc(N)c2n1)c1ccc(C(=O)N[C@@H](CCC(=O)O)C(=O)O)cc1` [methotrexate], the “half-life of the drug in serum” value in [5] is reported as “about 2 hours”.
